± gives the expanded uncertainty stated by the source.
Assay: mn = molality of the nth substance listed, in mol/kg
Settings: 100 kPa, Liquid, Vibrating tube method

O=C[C@H](O)[C@@H](O)[C@H](O)[C@H](O)CO [D-glucose] + O
mass density [kg/m3]
Settings	m1 = 0.04761	m1 = 0.08797	m1 = 0.09893	m1 = 0.1276	m1 = 0.1555	m1 = 0.1767	m1 = 0.2008
288.15 K	1002.39 ± 0.041	1005.11 ± 0.043	1005.85 ± 0.044	–	1009.58 ± 0.047	1010.96 ± 0.048	1012.51 ± 0.05
298.15 K	1000.27 ± 0.04	1002.97 ± 0.043	1003.7 ± 0.043	1005.58 ± 0.045	–	–	1010.31 ± 0.049
308.15 K	997.256 ± 0.042	999.92 ± 0.042	1000.64 ± 0.042	1002.5 ± 0.044	1004.29 ± 0.045	1005.64 ± 0.047	–
318.15 K	993.41 ± 0.043	996.056 ± 0.043	996.767 ± 0.043	998.624 ± 0.043	1000.4 ± 0.044	1001.75 ± 0.045	1003.26 ± 0.046

O [water] + O=C[C@H](O)[C@@H](O)[C@H](O)[C@H](O)CO
Settings	mass density [kg/m3]
308.15 K, m2 = 0	994.063 ± 0.042

O=C[C@H](O)[C@@H](O)[C@H](O)CO [D-xylose] + O
mass density [kg/m3]
Settings	m1 = 0.05973	m1 = 0.06763	m1 = 0.09347	m1 = 0.1376	m1 = 0.1501	m1 = 0.1698	m1 = 0.1873
288.15 K	1002.39 ± 1.2	1002.82 ± 1.2	1004.22 ± 1.2	1006.58 ± 1.2	1007.24 ± 1.2	1008.28 ± 1.2	1009.21 ± 1.2
298.15 K	1000.28 ± 1.2	1000.71 ± 1.2	1002.09 ± 1.2	1004.43 ± 1.2	1005.09 ± 1.2	1006.12 ± 1.2	1007.03 ± 1.2
308.15 K	997.274 ± 1.2	997.695 ± 1.2	999.067 ± 1.2	1001.39 ± 1.2	1002.04 ± 1.2	1003.07 ± 1.2	1003.97 ± 1.2
318.15 K	993.436 ± 1.2	993.851 ± 1.2	995.213 ± 1.2	997.518 ± 1.2	998.164 ± 1.2	999.183 ± 1.2	1000.08 ± 1.2

C[NH+]1CCCC1=O.O=C[O-] [N-methyl-2-oxopyrrolidinium formate] + O
mass density [kg/m3]
Settings	288.15 K	298.15 K	308.15 K	318.15 K
m1 = 0.1	1000.87 ± 0.041	998.697 ± 0.042	995.571 ± 0.043	991.633 ± 0.045
m1 = 0.15	1001.64 ± 0.043	999.401 ± 0.043	996.217 ± 0.044	992.225 ± 0.046
m1 = 0.2	1002.42 ± 0.044	1000.1 ± 0.044	996.862 ± 0.045	992.816 ± 0.047
m1 = 0.25	1003.19 ± 0.046	1000.81 ± 0.045	997.508 ± 0.046	993.408 ± 0.048

CCC(=O)[O-].C[NH+]1CCCC1=O [N-methyl-2-oxopyrrolidinium propionate] + O
mass density [kg/m3]
Settings	288.15 K	298.15 K	308.15 K	318.15 K
m1 = 0.1	1000.28 ± 0.042	998.097 ± 0.042	994.976 ± 0.044	990.978 ± 0.045
m1 = 0.15	1000.81 ± 0.043	998.566 ± 0.044	995.384 ± 0.045	991.337 ± 0.047
m1 = 0.2	1001.35 ± 0.045	999.034 ± 0.045	995.792 ± 0.046	991.696 ± 0.048
m1 = 0.25	1001.89 ± 0.047	999.503 ± 0.046	996.2 ± 0.048	992.055 ± 0.049
